Assay results published in publication PMC12032302, “A20 attenuates oxidized self-DNA-mediated inflammation in acute kidney injury” (Signal Transduction and Targeted Therapy, 2025).
Residues, ends and D or L forms follow the SMILES beside them.

Columns and labels:
[1] = test system: recombinant human NEK7 protein; experiment: BLI analysis of recombinant human NEK7 and P-II; conditions: Supplementary Fig. 4e, peptide immobilized on AR2G biosensors 400 μg/ml, recombinant human NEK7 39.0625 to 1250 nM, 1:1 binding model
Description: Bio-Layer Interferometry (BLI) analysis
The peptide (Bootech BioScience &Technology) was immobilized separately on Octet® AR2G Biosensors (Sartorius, Lot#2308017311) at a concentration of 400 μg/ml for 500 s. Association and dissociation curves were obtained through the addition of a dilution series of recombinant human NEK7 protein (SinoBiological, CAT#11534-H20B) (39.0625 to 1250 nM) for 120 s followed by dissociation for 120 s. Interference patterns for association or dissociation were measured in real-time to generate a response profile on the Octet® System Octet 96 Red instrument (Sartorius). A 1:1 binding model was used to evaluate the Kinetic parameter.

[2] = test system: AKI mice; experiment: tubular injury / renal injury of AKI mice (HE histology); format: in vivo, mouse; conditions: Cis-treated mice; A20-derived peptide 15 mg/kg i.p., pretreated; n = 9
Description: LPS (Sigma, Cat#L2630) was dissolved in PBS to 2.5 mg/mL for one-time intraperitoneal 25 mg/kg injection; deoxyribonuclease I (DNase I, Sigma, Cat#SLBV1446) was dissolved in PBS to 1 mg/mL and injected intraperitoneally at a dose of 10 mg/kg at 4 h before cisplatin or AA I injection and every 24 h after injection. Disulfiram (MedChemExpress, CAS:97-77-8) was diluted in corn oil to 12.5 mg/mL and injected 50 mg/kg intraperitoneally every 24 h after cisplatin or AA I administration. Cu(II) (Sigma, Cat#344419) was dissolved in PBS to 30 µg/mL and administered intraperitoneally 6 h before disulfiram at a dose of 0.15 mg/kg; TNF-α (Peprotech, Cat#315-01 A) was dissolved in PBS to 10 µg/mL and injected at 100 µg/kg once through the caudal vein 24 h before cisplatin injection. […] MCC950 (MedChem Express, CAS:256373-96-3) was dissolved in PBS to 5 mg/mL and injected intraperitoneally at a dose of 50 mg/kg 12 h before cisplatin or AA I injection and every 12 h after injection; berberine (APExBIO, Cat#N1368) was dissolved in PBS to 5 mg/mL and 5 mg/kg injected intraperitoneally at 36, 24 and 12 h before cisplatin; […] To supervise the effects of various treatments on survival time and rate, the mice were observed, and survival curves were generated. To investigate the specific mechanisms, whole blood was retrieved from the orbit, serum was separated through centrifugation on the 4th day, and the mice were then sacrificed by cervical dislocation. Mice were randomly assigned in experiments, while there was no blinding during the animal experiments. Renal function was evaluated based on serum creatinine level and histological features. Serum creatinine was determined in the Clinical Pharmacology Lab, Clinical Trial Center, WCH, SCU. The kidneys were extracted from euthanized mice, immediately fixed with 4% paraformaldehyde, and embedded in paraffin. Furthermore, the samples were cut into 5 µm thick sections. These tissue samples were subjected to hematoxylin-eosin (HE) and […] according to standard protocols with HE reagent (Biosharp, Cat#BL702B, BL703B) and Masson reagent (Servicebio, Cat#G1006-100ML). The pathological changes were detected through optical microscopy, and the tubulointerstitial injury score was determined as previously reported.

How did the “affinity for NEK7 (in words)” value [1] turn out when `CSCC[C@H](NC(=O)[C@H](Cc1ccc(O)cc1)NC(=O)[C@H](CCC(N)=O)NC(=O)[C@H](CS)NC(=O)[C@H](C)NC(=O)[C@H](C)NC(=O)[C@H](Cc1c[nH]cn1)NC(=O)[C@H](CCSC)NC(=O)[C@H](CC(C)C)NC(=O)[C@H](CS)NC(=O)[C@H](CC(N)=O)NC(=O)CNC(=O)[C@H](CC(=O)O)NC(=O)CNC(=O)[C@H](CC(N)=O)NC(=O)[C@@H](NC(=O)[C@H](CCCCN)NC(=O)[C@H](CC(C)C)NC(=O)[C@H](C)NC(=O)[C@@H](NC(=O)[C@H](CC(C)C)NC(=O)[C@@H](N)CCCCN)C(C)C)[C@@H](C)O)C(=O)N[C@@H](Cc1c[nH]c2ccccc12)C(=O)NCC(=O)N[C@H](C(=O)N[C@@H](CCC(N)=O)C(=O)N[C@@H](CC(=O)O)C(=O)N[C@H](C(=O)N[C@@H](CC(=O)O)C(=O)O)[C@@H](C)O)C(C)C` [P-II] (H-KLVALKTNGDGNCLMHAACQYMWGVQDTD-OH; N-terminus and C-terminus assumed) was run?
The value was “high affinity to NEK7 protein”.

What about the “renal injury (in words)” value [2] of the same molecule?
Its value is “alleviated the serum creatinine and renal injury”.
